Laboratory results published in PMC9655618 (Cancers, 2022).

Columns and labels:
T47D cells = experiment: MTT cell viability assay; assay type: cell-based, human; conditions: Homo sapiens, T47D, 72 h, 10%FBS growth media
Experimental: (§1) Straightforward, the tetrazolium salt 3-(4,5-methyltiazol-2yl-)-2,5diphenyl-tetrazolium bromide (MTT) (Applichen, Darmstadt, Germany) was added to cells, incubated for 2–4 h at 37 °C, and lysed in 10% SDS. The mitochondrial metabolization of the tetrazolium salt was determined by the analysis of the optical density at 595 nm, measured with the iMark microplate Reader (Bio–Rad, Irvine, CA, USA).

PBMC = experiment: MTT cell viability assay; assay type: cell-based; conditions: Homo sapiens, 72 h, 10%FBS growth media
Experimental: (§2) Straightforward, the tetrazolium salt 3-(4,5-methyltiazol-2yl-)-2,5diphenyl-tetrazolium bromide (MTT) (Applichen, Darmstadt, Germany) was added to cells, incubated for 2–4 h at 37 °C, and lysed in 10% SDS.

VERO cells = experiment: MTT cell viability assay; assay type: cell-based, monkey; conditions: Primates, Vero, 72 h, 10%FBS growth media
Experimental: as §2

Hs-578T cells = experiment: MTT cell viability assay; assay type: cell-based, human; conditions: Homo sapiens, Hs-578T, 72 h, 10%FBS growth media
Experimental: as §2

MCF-10A cells = experiment: MTT cell viability assay; assay type: cell-based, human; conditions: Homo sapiens, MCF-10A, 72 h, 10%FBS growth media
Experimental: as §2

MDA-MB-231 cells = experiment: MTT cell viability assay; assay type: cell-based, human; conditions: Homo sapiens, MDA-MB-231, 72 h, 10%FBS growth media
Experimental: as §2

Ishikawa cells = experiment: MTT cell viability assay; assay type: cell-based, human; conditions: Homo sapiens, Ishikawa, read-out: IC50 (μM) ISHIKAWA, 72 h, 10%FBS growth media
Experimental: as §2

BT-549 cells = experiment: MTT cell viability assay; assay type: cell-based, human; conditions: Homo sapiens, BT-549, 72 h, 10%FBS growth media
Experimental: as §2

MCF-7/BUS cells = experiment: MTT cell viability assay; assay type: cell-based, human; conditions: Homo sapiens, MCF7/BUS; 72 h, 10%FBS growth media, MTT; read-out: IC50 (μM) MCF-7/BUS
Experimental: as §2

SK-BR-3 cells = experiment: MTT cell viability assay; assay type: cell-based, human; conditions: Homo sapiens, SK-BR-3, 72 h, 10%FBS growth media
Experimental: as §2

MCF-7 cells = experiment: MTT cell viability assay; assay type: cell-based, human; conditions: Homo sapiens, MCF7, 72 h, 10%FBS growth media
Experimental: as §2

[1] = tested on: ER+ cancer cells (i.e., MCF-7, MCF-7/BUS, T47D and Ishikawa cells); experiment: MTT cell viability, summary over ER+ cancer cells; assay type: cell-based; conditions: Homo sapiens, read-out: IC50, viability of ER+ cancer cells, E2-non-depleted cells, text summary of Table 1 over MCF-7, MCF-7/BUS
Experimental: as §1

[2] = tested on: STAT3 transcriptional activity in HEK293 cells; experiment: IL6-induced STAT3 transcriptional activity, Renilla reporter HEK-293 cells; conditions: hIL6 10 ng/ml

COc1cccc2c1C(=O)c1c(O)c3c(c(O)c1C2=O)C[C@@](O)(C(=O)CO)C[C@@H]3O[C@H]1C[C@H](N)[C@H](O)[C@H](C)O1 [DOXO, doxorubicin, reference compound]
IC50 (T47D cells): 0.15 ± 0.02 µM | IC50 (PBMC): 1.47 ± 0.69 µM | IC50 (VERO cells): 2.62 ± 0.24 µM | IC50 (Hs-578T cells): 0.37 ± 0.05 µM | IC50 (MCF-10A cells): 0.09 ± 0.01 µM | IC50 (MDA-MB-231 cells): 0.25 ± 0.07 µM | IC50 (Ishikawa cells): 0.09 ± 0.03 µM | IC50 (BT-549 cells): 0.19 ± 0.04 µM | IC50 (MCF-7/BUS cells): 0.05 ± 0.02 µM | IC50 (SK-BR-3 cells): 0.04 ± 0.01 µM | IC50 (MCF-7 cells): 0.07 ± 0.01 µM

COc1ccc(C2=CC(O)(c3ccc([N+](=O)[O-])cc3)N(Cc3ccccc3)C2=O)cc1 (stereo not shown) [compound 43, 1-benzyl-5-hydroxy-3-(4-methoxyphenyl)-5-(4-nitrophenyl)-1H-pyrrol-2(5H)-one]
IC50 (T47D cells): 8.57 ± 0.43 µM | IC50 [1]: < 10 µM | IC50 (Hs-578T cells): > 10 µM | IC50 (MDA-MB-231 cells): > 10 µM | IC50 (Ishikawa cells): 3.47 ± 0.94 µM | IC50 (BT-549 cells): 6.23 ± 3.48 µM | IC50 (MCF-7/BUS cells): 2.85 ± 1.24 µM | IC50 (SK-BR-3 cells): 2.16 ± 0.05 µM | IC50 (MCF-7 cells): 6.54 ± 0.41 µM

COc1ccccc1C1=CC(O)(c2ccc([N+](=O)[O-])cc2)N(Cc2ccccc2)C1=O (stereo not shown) [compound 49, 1-benzyl-5-hydroxy-3-(2-methoxyphenyl)-5-(4-nitrophenyl)-1H-pyrrol-2(5H)-one]
IC50 (T47D cells): > 10 µM | IC50 [1]: < 10 µM | IC50 (Hs-578T cells): > 10 µM | IC50 (MCF-10A cells): 0.31 ± 0.03 µM | IC50 (MDA-MB-231 cells): 7.94 ± 2.07 µM | IC50 (Ishikawa cells): 4.82 ± 1.84 µM | IC50 (BT-549 cells): > 10 µM | IC50 (MCF-7/BUS cells): 5 ± 1.79 µM | IC50 (SK-BR-3 cells): > 10 µM | IC50 (MCF-7 cells): 3.47 ± 1.12 µM

hIL-6: pure agonist hIL6 (10 ng/mL) used to induce STAT3 transcriptional activity
maximal luciferase activity or Emax [2]: 10.08 ± 2.41 fold induction
